The target of one assay is T1, CHK1 (kinase domain) (Homo sapiens, UniProt O14757).
T1 construct: a solution containing 1 nM of CHK1 (kinase domain)
T1 sequence (O14757 9-265 limits assumed): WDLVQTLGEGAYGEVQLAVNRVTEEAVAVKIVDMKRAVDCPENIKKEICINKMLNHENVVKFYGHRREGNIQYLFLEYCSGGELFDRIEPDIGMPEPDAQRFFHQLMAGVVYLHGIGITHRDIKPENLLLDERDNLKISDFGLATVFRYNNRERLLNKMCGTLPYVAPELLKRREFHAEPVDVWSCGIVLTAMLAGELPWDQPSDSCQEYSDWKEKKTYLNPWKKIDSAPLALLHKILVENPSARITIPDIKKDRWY
The assay is described as follows: CHK1 Ki determination, spectrophotometric coupled (pyruvate kinase/lactate dehydrogenase) assay. Conditions: CHK-1 kinase domain; 150 uM ATP, 125 uM Syntide 2. It is filed as biochemical. In short, it runs like this:
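Ki values, or % inhibition where no Ki was obtained, come from a tight-binding fit that uses active enzyme concentration and the ATP Km. Rates were followed as NADH loss at 340 nm, with ADP production coupled via pyruvate kinase and lactate dehydrogenase. Reactions with ATP (150 uM) and Syntide 2 (125 uM) were started after the CHK1 kinase domain had stood with inhibitor for 15 min.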

The test system of another assay is Mia Paca-2 cells. The assay is described as follows: Histone H3 (Ser10) phosphorylation ELISA, abrogation of camptothecin-induced G2 arrest (CHK-1 cellular assay). Conditions: Homo sapiens; Mia Paca-2 cells (entries marked *); camptothecin 8 hrs, then compound with nocodozole 16 hours. The format is cell-based. An outline of the steps:
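HeLa cells, or Mia Paca-2 where marked, were damaged with camptothecin for 8 h, then exposed to compound with nocodazole for 16 h. Mitotic entry was read as phospho-histone H3 (Ser10) by sandwich ELISA, with absorbance at 450 nm. EC50 came from four-parameter sigmoid fitting.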
Background: In an ELISA, binding on a coated surface is turned into a signal by an enzyme label.

pEC50, pKi: −log10 of the molar value.

As usually defined, the pKi is −log10 of the Ki, conventionally taken in molar units. A high value points to a low Ki. A word on the pEC50: it is −log10 of the EC50, conventionally taken in molar units. Take `Clc1cc2c(cn1)ncn2-c1cncc(N[C@@H]2CCNC2)n1` [Example 271, 6-(6-chloro-1H-imidazo[4,5-c]pyridin-1-yl)-N-[(3R)-pyrrolidin-3-yl]pyrazin-2-amine]: the negative-log Ki (pKi) on CHK1 (kinase domain) was 6.93. In the assay with Mia Paca-2 cells, this compound had a pEC50 of 5.32.

Regarding `c1ncc(-n2cnc3cnc(N4CCOCC4)cc32)nc1N[C@@H]1CCCNC1` [Example 272, 6-[6-(morpholin-4-yl)-1H-imidazo[4,5-c]pyridin-1-yl]-N-[(3R)-piperidin-3-yl]pyrazin-2-amine], on CHK1 (kinase domain), the pKi was 7.39. The compound also had a pEC50 with Mia Paca-2 cells of 5.70.

Turning to `Cc1cn2c(-c3cncc(N[C@@H]4CCCN[C@@H]4C)n3)cnc2cn1` [Example 285, 6-(6-methylimidazo[1,2-a]pyrazin-3-yl)-N-[(2R,3R)-2-methylpiperidin-3-yl]pyrazin-2-amine], the pKi at CHK1 (kinase domain) is 7.67. Moreover, the pEC50 with Mia Paca-2 cells was 7.04.

The record behind these values is patent US8518952B2, “6 substituted 2-heterocyclylamino pyrazine compounds as CHK-1 inhibitors” (Pfizer Inc., priority 2008, dated 2013).
